Values quoted from earlier work, collected in patent US20110034507A1, “FARNESOID X RECEPTOR AGONISTS” (SMITHKLINE BEECHAM CORPORATION, priority 2007, published 2011).

What was measured:
[1] = system: hepatic stellate cells (HSC); settings: cultured HSCs; cited from earlier work
[2] = system: rodent models of hepatic fibrosis; settings: multiple rodent models; cited from earlier work

## CC[C@H]1[C@@H](O)[C@@H]2[C@H](CC[C@]3(C)[C@@H]([C@H](C)CCC(=O)O)CC[C@@H]23)[C@@]2(C)CC[C@@H](O)C[C@@H]12 [Example 6EtCDCA, 6-ethyl-chenodeoxycholic acid]
[1]
  expression of α1(I)collagen: decreased
  expression of α-smooth muscle actin: decreased
[2]
  hepatic fibrosis: prevent development and promote resolution
